Here are results for 22 compounds from patent US11254671B2, “Chemical compounds” (GLAXOSMITHKLINE INTELLECTUAL PROPERTY DEVELOPMENT LIMITED, priority 2017, dated 2022).

For this assay, the system named is type I collagen deposition in primary lung fibroblasts. Description: Highthroughput type I collagen deposition (scar-in-a-jar) high content screening assay. It counts as cell-based. To be noted: Homo sapiens, Primary lung fibroblast, 72 h, human pulmonary fibroblasts, TGF-β 1 ng/ml, Ficoll crowding, mean of multiple experiments, read-out: mean pIC50, inhibition of type I collagen deposition (converted). How it is done: Example 53 Highthroughput Type I Collagen Deposition (Scar-in-a-Jar) High Content Screening Assay
Highthroughput, cellular type I collagen deposition was measured by adapting a published method; scar-in-a-jar (Chen et al., 2009) to primary lung fibroblasts derived from human tissue and combining with high content analysis to permit fluorescent quantification of collagen deposited in the extracellular matrix (ECM). The human biological samples were sourced ethically and their research use was in accord with the terms of the informed consents
Test compounds were dissolved in 100% DMSO to give 10 mM (stocks) and further diluted to give half log dilutions to generate an 11 point concentration response curve. 1 ul was transferred to 384-well plates (Greiner Group, Kremsmunster, Austria, Catalogue No Greine 781280r).
Human pulmonary fibroblasts were maintained in DMEM media (Gibco, Catalogue No 21969) supplemented with 4 mM L-glutamine (Gibco Catalogue No 25030-024) and 10% heat inactivated FBS (Gibco, Catalogue No 10099-141) at 37° C. in 10% CO2. Cells were harvested and resuspended at 4×10^6 cells/ml in a T175 cell culture flask (BD Falcom, Catalogue No: 353112) containing 50 mL of culture media. After 4 days 37° C. in 10% CO2, cells were harvested and seeded at 4000 cells per well (50 μL/well) into 384-well plates (BD Falcon, Catalogue No 353962Greiner) in assay media (0.4% heat inactivated FBS, 4 mM L-glutamine). Plates were sealed with breathable seals (Sigma, Catalogue No. BEM-1). Assay plates were incubated for 72 h at 37° C. in 10% CO2.
Assay media was supplemented with 112.5 mg/ml Ficoll 70 (Sigma, Catalogue No F2878), 75 mg/ml Ficoll 400 (Sigma, Catalogue No F4375) and 50 μg/ml ascorbic acid (Sigma, Catalogue No A8960). 30 μL assay media were added to 1 μl compound (37 μM compound concentration in 1% DMSO). Diluted compounds (10 μL) were transferred to plates containing cells and incubated for 3 h at 37° C. in 10% CO2. Transforming growth factor (TGF)-β (R&D systems, Catalogue No 100-B/CF) was reconstituted to give 10 μg/mL (stock) and further diluted in assay media containing Ficoll and ascorbic acid (1 in 3333). TGF-β was added to cell plates (1 ng/ml final) and cells incubated for 72 h at 37° C. in 10% CO2.
Media was aspirated from cells and 30 μL/well 100% ice-cold methanol added and incubated at RT for 5 min to fix cells. Methanol was aspirated and cells washed with PBS (3×). To block and permeabilise, cells were incubated with PBS containing 1% BSA and 0.1% Triton X 100 for 20 min, followed by PBS wash (3×). Cells were incubated with mouse anti human type I collagen monoclonal antibody (Sigma, Catalogue No C2456) diluted 1:1000 in PBS for 24 h at 4° C. Cells were washed with PBS containing 0.1% Tween-20 (3×) and incubated with secondary alexa fluor 488 goat-anti-mouse antibody (Invitrogen, Catalogue No A11001, 1 in 500 in PBS) and Hoechst 33342 (Sigma, Catalogue No H21492), 1 in 1000 in PBS) for 1 h at RT, prior to washing with PBS containing 0.1% Tween (×4).
Type I collagen immunoreactivity was detected using the INCell 2000 Analyzer (GE Healthcare, INcell 2000) set to excitation and emission wavelengths for DAPI and FITC with laser focus and exposure adjusted to appropriate levels. Images were imported and analysed using Columbus software (Perkin Elmer) and computational algorithms to quantify “total collagen area” and “cell count”.
Data analysis was performed by determining % inhibition values for test compounds relative to the minimum (media only) and maximum responses (TGF-βstimulation) with non-linear regression analysis to determine IC50 values for test compounds.
With `CC[C@H]1COCCN1c1cc(C(C)(C)S(=O)(=O)C2CC2)cc(-c2ccc3[nH]c(CNC)cc3n2)n1` [Example 9, (S)-1-(5-(4-(2-(cyclopropylsulfonyl)propan-2-yl)-6-(3-ethylmorpholino)pyridin-2-yl)-1H-pyrrolo[3,2-b]pyridin-2-yl)-N-methylmethanamine], the IC50 was 39.8 to 100 nM.

With `CC[C@H]1COCCN1c1cc(C(C)(C)S(C)(=O)=O)cc(-c2ccc3[nH]c(CN)cc3n2)n1` [Example 21, 1-(5-{6-[(3S)-3-ethylmorpholin-4-yl]-4-(2-methanesulfonylpropan-2-yl)pyridin-2-yl}-1H-pyrrolo[3,2-b]pyridin-2-yl)methanamine], the IC50 is 39.8 to 1000 nM.

As for `CC[C@H]1COCCN1c1cc(C2(S(C)(=O)=O)CCOCC2)cc(-c2ccc3[nH]c(CN)cc3n2)n1` [Example 23, 1-(5-{6-[(3S)-3-ethylmorpholin-4-yl]-4-(4-methanesulfonyloxan-4-yl)pyridin-2-yl}-1H-pyrrolo[3,2-b]pyridin-2-yl)methanamine], the IC50 was 39.8 to 1000 nM.

Take `CNCc1cc2nc(-c3cc(C4(S(C)(=O)=O)CCOCC4)cc(N4C5CCC4COC5)n3)ccc2[nH]1` [Example 40, ({5-[4-(4-methanesulfonyloxan-4-yl)-6-{3-oxa-8-azabicyclo[3.2.1]octan-8-yl}pyridin-2-yl]-1H-pyrrolo[3,2-b]pyridin-2-yl}methyl)(methyl)amine]: the IC50 is 39.8 to 1000 nM.

Regarding `CC[C@H]1COCCN1c1cc(CS(=O)(=O)N(C)C)cc(-c2ccc3[nH]c(CNC)cc3n2)n1` [Example 17, (S)-1-(2-(3-ethylmorpholino)-6-(2-((methylamino)methyl)-1H-pyrrolo[3,2-b]pyridin-5-yl)pyridin-4-yl)-N,N-dimethylmethanesulfonamide], the IC50 was 39.8 to 1000 nM.

Turning to `CC[C@H]1COCCN1c1cc(CS(C)(=O)=O)cc(-c2ccc3[nH]c(CO)cc3n2)n1` [Example 34, (5-{6-[(3S)-3-ethylmorpholin-4-yl]-4-(methanesulfonylmethyl)pyridin-2-yl}-1H-pyrrolo[3,2-b]pyridin-2-yl)methanol], the IC50 was 39.8 to 1000 nM.

Regarding `CC[C@H]1COCCN1c1cc(C2(S(=O)(=O)C3CC3)CC2)cc(-c2ccc3[nH]c(CNC)cc3n2)n1` [Example 11, (S)-1-(5-(4-(1-(cyclopropylsulfonyl)cyclopropyl)-6-(3-ethylmorpholino)pyridin-2-yl)-1H-pyrrolo[3,2-b]pyridin-2-yl)-N-methylmethanamine], the IC50 was 39.8 to 100 nM.

Consider `CC[C@H]1COCCN1c1cc(C2(S(C)(=O)=O)CCOCC2)cc(-c2ccc3[nH]c(CO)cc3n2)n1` [Example 33, (5-{6-[(3S)-3-ethylmorpholin-4-yl]-4-(4-methanesulfonyloxan-4-yl)pyridin-2-yl}-1H-pyrrolo[3,2-b]pyridin-2-yl)methanol], for which the IC50 is 39.8 to 1000 nM.

In the case of `CNCc1cc2nc(-c3cc(C(C)(C)S(C)(=O)=O)cc(N4[C@@H]5CC[C@H]4COC5)n3)ccc2[nH]1` [Example 3, 1-(5-(6-((1R,5S)-3-oxa-8-azabicyclo[3.2.1]octan-8-yl)-4-(2-(methylsulfonyl)propan-2-yl)pyridin-2-yl)-1H-pyrrolo[3,2-b]pyridin-2-yl)-N-methylmethanamine], the IC50 is 39.8 to 1000 nM.

Take `CC[C@H]1COCCN1c1cc(CS(=O)(=O)C2CC2)cc(-c2ccc3[nH]c(CNC)cc3n2)n1` [Example 10, (S)-1-(5-(4-((cyclopropylsulfonyl)methyl)-6-(3-ethylmorpholino)pyridin-2-yl)-1H-pyrrolo[3,2-b]pyridin-2-yl)-N-methylmethanamine]: the IC50 was 39.8 to 1000 nM.

Turning to `CNCc1cc2nc(-c3cc(CS(C)(=O)=O)cc(N4CC5CCC(C4)O5)n3)ccc2[nH]1` [Example 25, ({5-[4-(methanesulfonylmethyl)-6-{8-oxa-3-azabicyclo[3.2.1]octan-3-yl}pyridin-2-yl]-1H-pyrrolo[3,2-b]pyridin-2-yl}methyl)(methyl)amine], the IC50 was 39.8 to 1000 nM.

With `CNCc1cc2nc(-c3cc(C(F)(F)S(C)(=O)=O)cc(N4CCOC[C@@H]4C)n3)ccc2[nH]1` [Example 12, (S)-1-(5-(4-(difluoro(methylsulfonyl)methyl)-6-(3-methylmorpholino)pyridin-2-yl)-1H-pyrrolo[3,2-b]pyridin-2-yl)-N-methylmethanamine], the IC50 was 39.8 to 1000 nM.

Regarding `CC[C@H]1COCCN1c1cc(C2(S(C)(=O)=O)CC2)cc(-c2ccc3[nH]c(CNC)cc3n2)n1` [Example 19, [(5-{6-[(3S)-3-ethylmorpholin-4-yl]-4-(1-methanesulfonylcyclopropyl)pyridin-2-yl}-1H-pyrrolo[3,2-b]pyridin-2-yl)methyl](methyl)amine], the IC50 was 39.8 to 1000 nM.

On to `CCS(=O)(=O)C(C)(C)c1cc(-c2ccc3[nH]c(CNC)cc3n2)nc(N2CCOC[C@@H]2C)c1` [Example 7, (S)-1-(5-(4-(2-(ethylsulfonyl)propan-2-yl)-6-(3-methylmorpholino)pyridin-2-yl)-1H-pyrrolo[3,2-b]pyridin-2-yl)-N-methylmethanamine], for which the IC50 is 39.8 to 1000 nM.

For the compound `CC[C@H]1COCCN1c1cc(C(C)(C)S(N)(=O)=O)cc(-c2ccc3[nH]c(CNC)cc3n2)n1` [Example 28, 2-{2-[(3S)-3-ethylmorpholin-4-yl]-6-{2-[(methylamino)methyl]-1H-pyrrolo[3,2-b]pyridin-5-yl}pyridin-4-yl}propane-2-sulfonamide], the IC50 was 39.8 to 1000 nM.

Regarding `CNCc1cc2nc(-c3cc(C(C)(C)S(C)(=O)=O)cc(N4CC5CCC(C4)O5)n3)ccc2[nH]1` [Example 4, 1-(5-(6-(8-oxa-3-azabicyclo[3.2.1]octan-3-yl)-4-(2-(methylsulfonyl)propan-2-yl)pyridin-2-yl)-1H-pyrrolo[3,2-b]pyridin-2-yl)-N-methylmethanamine], the IC50 is 39.8 to 1000 nM.

For `CC[C@H]1COCCN1c1cc(C(C)(C)S(C)(=O)=O)cc(-c2ccc3[nH]c(CO)cc3n2)n1` [Example 32], the IC50 is 39.8 to 1000 nM.

For `CC[C@H]1COCCN1c1cc(CS(=O)(=O)N(C)C)cc(-c2ccc3[nH]c(CO)cc3n2)n1` [Example 35, 1-{2-[(3S)-3-ethylmorpholin-4-yl]-6-[2-(hydroxymethyl)-1H-pyrrolo[3,2-b]pyridin-5-yl]pyridin-4-yl}-N,N-dimethylmethanesulfonamide], the IC50 is 39.8 to 1000 nM.

In the case of `CC[C@H]1COCCN1c1cc(CS(=O)(=O)NC)cc(-c2ccc3[nH]c(CNC)cc3n2)n1` [Example 30, 1-{2-[(3S)-3-ethylmorpholin-4-yl]-6-{2-[(methylamino)methyl]-1H-pyrrolo[3,2-b]pyridin-5-yl}pyridin-4-yl}-N-methylmethanesulfonamide], the IC50 is 39.8 to 1000 nM.

Turning to `CC[C@H]1COCCN1c1cc(CS(C)(=O)=O)cc(-c2ccc3[nH]c(CNC)cc3n2)n1` [Example 13, (S)-1-(5-(6-(3-ethylmorpholino)-4-((methylsulfonyl)methyl)pyridin-2-yl)-1H-pyrrolo[3,2-b]pyridin-2-yl)-N-methylmethanamine], the IC50 was 39.8 to 1000 nM.

For the compound `CNCc1cc2nc(-c3cc(C(C)(C)S(C)(=O)=O)cc(N4CCOC[C@@H]4C)n3)ccc2[nH]1` [Example 2, (S)—N-methyl-1-(5-(6-(3-methylmorpholino)-4-(2-(methylsulfonyl)propan-2-yl)pyridin-2-yl)-1H-pyrrolo[3,2-b]pyridin-2-yl)methanamine], the IC50 was 39.8 to 1000 nM.

In the case of `CNCc1cc2nc(-c3cc(CS(C)(=O)=O)cc(N4CCOC[C@@H]4C)n3)ccc2[nH]1` [Example 6, (S)—N-methyl-1-(5-(6-(3-methylmorpholino)-4-((methylsulfonyl)methyl)pyridin-2-yl)-1H-pyrrolo[3,2-b]pyridin-2-yl)methanamine], the IC50 was 39.8 to 1000 nM.
